Assay results: US11312693B2, “Protease inhibitors” (MEDIVIR AB, priority 2008, dated 2022)

Legend:
[1] = In vivo mouse PK, oral administration (FIG. 1); set-up: species or system male C57BI mice; conditions: 60 μmol/kg in 1% Methocel A4C, versus Example 2 of WO2008 007107
From the text: FIG. 1 depicts plasma concentration against time for male C57BI mice orally administered a compound of the invention or a compound of the prior art.
Various embodiments of the invention will now be described by way of illustration only with reference to the following Examples and FIG. 1 which depicts plasma concentration against time for male C57BI mice orally administered a compound of the invention or a compound of the prior art.

[2] = Metabolic stability in whole blood; assay type: in vitro ADME; conditions: from CLint
Experimental: Compounds of the invention and the indicated comparative examples were tested for metabolic stability in a cytosol assay in which the compounds were incubated with commercially available human hepatic cytosol fractions and the disappearance of the compound monitored by HPLC or LC/MS. Pooled human liver cytosol fractions are less likely to represent outlier individuals than blood from a single individual and can be stored frozen, unlike whole blood. The cytosol assay thus provides a consistent assay testbed as a guide to the stability of a compound in the in vivo environment, such as when exposed to whole blood.
In short, test compounds (2 μM) are incubated in pooled human liver cytosol (Xenotech LLC Lenexa US, 1 mg/mL protein in 0.1M phosphate buffer, pH 7.4) at 37° centigrade over a one hour period. The incubations are initiated by the addition of 1 mM NADPH co-factor. Timed sub-samples were taken at 0, 20, 40 and 60 minutes and “crash precipitated” by the addition of 3 volumes of ice-cold acetonitrile. The samples were centrifuged at reduced temperature and the supernatants were separated and analyzed by LC-MS-MS.
Alternatively, an analogous stability assay is carried out in human or monkey whole blood and/or commercially available liver microsomes, such as XEN 025.

Structure (SMILES) | in vivo exposure (whether measured as Cmax or AUC) [1] | estimated / calculated whole blood half life [2]
C#C[C@@H]1CN(C(=O)[C@H](CC(C)C)NC(=O)c2ccc(-c3nc(N4CCN(C)CC4)sc3F)cc2)[C@@H]2C(=O)CO[C@H]12 [Example 2, N-[1-6-(ethynyl-3-oxo-hexahydro-furo[3,2-b]pyrrole-4-carbonyl)-3-methyl-butyl]-4-[5-fluoro-2-(4-methyl-piperazin-1-yl)thiazol-4-yl]-benzamide] | very much greater | –
CC(C)C[C@H](NC(=O)c1ccc(-c2csc(N3CCN(C)CC3)n2)cc1)C(=O)N1C[C@@H](C)[C@H]2OCC(=O)[C@H]21 [comparative example] | – | little over an hour
